Experimental data: patent US10059733B2 (NUCORION PHARMACEUTICALS, INC., priority 2014, dated 2018)
Like-named read-outs stand apart in the source and are kept apart here.

Columns and labels:
PK9 cells [1] = test: TC50 assay in PK9 cells, 48 h; conditions: Homo sapiens, PK9, 48 h, read-out: TC50 (μM) in PK9 cells at 48 hr
Protocol: (§1) Huh7 cells were maintained at 37° C. in a humidified atmosphere at 5% CO2 in DMEM containing 10% FBS. […] The cells were then treated with each compound at concentrations ranging from 500 μM to 0 μM in triplicate in DMEM media containing 2% FBS and 0.5% DMSO and without phenol red. After 48 h of treatment at 37° C., the relative number of living cells in each well was determined by using the CellTiter 96 system (Promega) according to the manufacturer's instructions. The 3-(4,5-dimethylthiazol-2-yl)-5-(3-carboxymethoxyphenyl)-2-(4-sulfophenyl)-2H-tetrazolium (MTS) and phenazine methosulfate (PMS) reagents were added to each well of the 96-well plate and the plate was incubated at 37° C. for approximately 2 h. The absorbance at 490 nm and 650 nm in each well was then determined by using a Flexstation 3 microplate reader ([…]). The absorbance determined at 650 nm was then subtracted from the absorbance determined at 490 nm to correct for light scattering. The corrected absorbance values representing the relative number of live cells in each condition were then plotted as a function of compound concentration, and the data were then fit to the following sigmoidal Emax equation by using Kaleidagraph: y=(Emax*x^Slope)/(TC50^Slope+x^Slope) where y is the relative corrected absorbance value, Emax is the maximum relative inhibition, x is the compound concentration, TC50 is the concentration of the compound at which the total cell population is reduced by 50%, and Slope is the slope of the curve.
(§2) PK9 and RPK9 cells were maintained at 37° C. in a humidified atmosphere at 5% CO2 in Roswell Park Memorial Institute (RPMI) media containing 10% FBS. […] The cells were then treated with each compound at concentrations ranging from […] to 0 μM in triplicate in RPMI media containing 2% FBS and 0.5% DMSO and without phenol red. […] The RPK9 cells were derived from the parental PK9 cell line, and are deficient for dCK activity due to the partial deletion of the dCK gene.

MCF-7 = test: TC50 assay with human cancer cell lines, 96 h: MCF-7; assay type: cell-based
Protocol: (§6) Huh7 cells were maintained at 37° C. in a humidified atmosphere at 5% CO2 in DMEM containing 10% FBS. […] The cells were then treated with each compound at concentrations ranging from 500 μM to 0 μM in triplicate in DMEM media containing 2% FBS and 0.5% DMSO and without phenol red. After 48 h of treatment at 37° C., the relative number of living cells in each well was determined by using the CellTiter 96 system (Promega) according to the manufacturer's instructions. The 3-(4,5-dimethylthiazol-2-yl)-5-(3-carboxymethoxyphenyl)-2-(4-sulfophenyl)-2H-tetrazolium (MTS) and phenazine methosulfate (PMS) reagents were added to each well of the 96-well plate and the plate was incubated at 37° C. for approximately 2 h. The absorbance at 490 nm and 650 nm in each well was then determined by using a Flexstation 3 microplate reader (Molecular Dynamics). The absorbance determined at 650 nm was then subtracted from the absorbance determined at 490 nm to correct for light scattering. The corrected absorbance values representing the relative number of live cells in each condition were then plotted as a function of compound concentration, and the data were then fit to the following sigmoidal Emax equation by using Kaleidagraph: y=(Emax*x^Slope)/(TC50^Slope+x^Slope) where y is the relative corrected absorbance value, Emax is the maximum relative inhibition, x is the compound concentration, TC50 is the concentration of the compound at which the total cell population is reduced by 50%, and Slope is the slope of the curve.
(§7) Huh7, HEPG2, HEK293, MCF-7 and BxPC3 cell lines were maintained at 37° C. in a humidified atmosphere at 5% CO2 in DMEM containing 10% FBS. […] The cells were then treated with each compound at concentrations ranging from 500 μM to 0 μM in triplicate in DMEM media containing 2% FBS and 0.5% DMSO and without phenol red.

HCV luciferase replicon = test: IC50 assay: inhibition of the HCV luciferase replicon in Huh7 cells; assay type: cell-based; conditions: for IC50: Hepatitis C virus; for Therapeutic Index (TC50/IC50): TC50 in Huh7 / IC50 HCV replicon, 48 h
Protocol: After 48 h of treatment at 37° C., the media in each well was removed, the cells were gently washed once with phosphate buffered saline (PBS) and subsequently lysed by the addition of Glo Lysis Buffer (Promega). After a 15 min incubation at room temperature to allow for complete cell lysis, Bright-Glo luciferase reagent (Promega) was added to each well and the relative luciferase activity in each well was determined by using a Glowmax 96 microplate luminometer (Promega).
IC50 values determined using the above methods for inhibition of the HCV luciferase replicon in Huh7 cells are set forth in Table 1.
All compounds were purified by HPLC.

RPK9 cells = test: TC50 assay in gemcitabine resistant (dCK deficient) RPK9 cells, 48 h; conditions: read-out: TC50 (μM) in RPK9 cells at 48 hr
Protocol: as §1, §2

[2] = TC50 assay in Huh7 cells, 48 h (CellTiter 96); conditions: human
Protocol: as §1
(§3) The data in Table 1 were determined for cells exposed to drug for 48 h. The IC50 is the concentration of each compound necessary to inhibit the replication of the HCV luciferase replicon to 50%. “TC50,” refers to toxic concentration necessary to reduce the cell population by 50%. All compounds were purified by HPLC.

Huh7 = test: TC50 assay with human cancer cell lines, 96 h: Huh7; assay type: cell-based
Protocol: as §6, §7

BxPC3 = test: TC50 assay with human cancer cell lines, 96 h: BxPC3; assay type: cell-based
Protocol: as §6, §7

HEPG2 = test: TC50 assay with human cancer cell lines, 96 h: HEPG2; assay type: cell-based
Protocol: as §6, §7

HEK293 = test: TC50 assay with human cancer cell lines, 96 h: HEK293; assay type: cell-based
Protocol: as §6, §7

PK9 cells [3] = test: Cell transport: cytotoxicity in PK9 cells with or without ENT1 inhibitor NBTI; conditions: Homo sapiens, PK9, 48 h
Protocol: as §1
(§4) To this end, Huh7 cells or PK9 cells were seeded in 96-well plates at a density of 5,000 cells/well or 2,500 cells/well, respectively, and the plates were incubated at 37° C. for 24 h to allow for cell attachment. The media was then removed from the plates and replaced with media containing 2% FBS, 0.5% DMSO and 10 μM NBTI. […] Subsequently, the cells were treated with each compound at final concentrations ranging from 500 μM to 0 μM in triplicate in media containing 2% FBS, 0.5% DMSO and 10 μM NBTI. […] The TC50 values of each compound in the presence or absence of the ENT1 inhibitor were then compared.

Huh7 cells [4] = test: TC50 assay in Huh7 cells, 48 h (CellTiter 96); conditions: read-out: TC50; Huh7 cells, 48 h exposure
Protocol: as §1, §3

genotype 1a HCV = test: Oral administration to HCV-infected chimpanzees, viral load (genotype 1a); assay type: in vivo, chimpanzee; conditions: Chimpanzee III
Protocol: (§5) Via oral gavage, two HCV-infected chimpanzees I (male, 56.49 kg and 11 years old; genotype 1b HCV) and II (male, 61.91 kg and 34 years old; genotype 1a HCV) each received a single dosage of 200 mg of Compound 1 in Formulation I while the HCV-infected chimpanzee III (male, 56.19 kg and 18 years old; genotype 1a HCV) was administered a single dosage of 260 mg of the non-phosphorylated analog of Compound 1 (Table 1) in Formulation I. After 12 hours, the HCV viral titer decreased from 24,100 to 10,200 IU/ml (or 58% drop) in Chimpanzee I, from 38,500 to 27,000 IU/ml (or 30% drop) in Chimpanzee II, and from 154,000 to 142,000 IU/ml (or 8% drop) in Chimpanzee III. […] All animals were fasted overnight prior to dosing and a minimum of 2 hours prior to scheduled blood sample collections. Viral load determinations were performed on plasma samples using the HCV TaqMan assay (COBAS® AmpliPrep/COBAS® TaqMan® HCV Test, Version 2, Test Code 1220) for quantitative analysis. […] There were no adverse effects, illness, nor distress seen with the three chimpanzees during the study requiring veterinarian intervention.

Huh7 cells [5] = test: Cell transport: cytotoxicity in Huh7 cells with or without ENT1 inhibitor NBTI; conditions: Homo sapiens, Huh-7, 48 h
Protocol: as §1, §4

[6] = Tolerability of single oral dosage in HCV-infected chimpanzees; assay type: in vivo, chimpanzee; conditions: single oral dosage 260 mg
Protocol: as §5

[7] = MCF7, 96 h of treatment, read-out: TC50 MCF-7
[8] = Huh-7, Huh7 cells containing HCV luciferase replicon, 48 h exposure, read-out: IC50
[9] = read-out: TC50 (μM) in PK9 cells at 48 h Without NBTI
[10] = Huh-7, 96 h of treatment, read-out: TC50 Huh7
[11] = BXPC-3, 96 h of treatment, read-out: TC50 BxPC3
[12] = HepG2, 96 h of treatment, read-out: TC50 HEPG2
[13] = HEK293, 96 h of treatment, read-out: TC50 HEK293

| SMILES | CC50 (PK9 cells [1]) [µM] | Therapeutic Index (TC50/IC50) (HCV luciferase replicon) | CC50 (RPK9 cells) [µM] | CC50 (MCF-7; [7]) [µM] | IC50 (HCV luciferase replicon; [8]) [µM] | CC50 (PK9 cells [3]; [9]) [µM] | CC50 (Huh7; [10]) [µM] | CC50 (BxPC3; [11]) [µM] | CC50 (HEPG2; [12]) [µM] | CC50 (HEK293; [13]) [µM] | further results |
| --- | --- | --- | --- | --- | --- | --- | --- | --- | --- | --- | --- |
| CC(C)OC(=O)[C@H](C)N[P@](=O)(OC[C@H]1O[C@@H](n2ccc(NC(=O)c3ccc4c(c3)OCO4)nc2=O)C(F)(F)C1O)Oc1ccccc1 (stereo in doubt) [Compound 4] | 16 ± 4.8 | 134 | 20.3 ± 3.9 | – | – | – | – | – | – | – | CC50 (MCF-7; MCF7, 96 h, read-out: TC50 MCF-7 (μM)): 1.93 µM; IC50 (HCV luciferase replicon; Huh-7, 48 h): 0.309 ± 0.045 µM; CC50 at 48 h [2]: 41.5 ± 5.6 µM; CC50 (Huh7; Huh-7, 96 h, read-out: TC50 Huh7 (μM)): 5.5 µM; CC50 (BxPC3; BXPC-3, 96 h, read-out: TC50 BxPC3 (μM)): 4.05 µM; CC50 (HEPG2; HepG2, 96 h, read-out: TC50 HEPG2 (μM)): 3.22 µM; CC50 (HEK293; HEK293, 96 h, read-out: TC50 HEK293 (μM)): 2.7 µM |
| Nc1ccn([C@@H]2O[C@H](CO)[C@@H](O)C2(F)F)c(=O)n1 [Gemcitabine, 2′,2′-difluorodeoxycytidine, reference compound] | 0.095 ± 0.035 | – | > 500 | 0.067 ± 0.014 | 0.058 ± 0.006 | 0.095 | 3.41 ± 1.36 | 0.0029 ± 0.003 | 0.311 ± 0.055 | 0.56 ± 0.13 | – |
| COc1cc(C(=O)Nc2ccn([C@@H]3O[C@H](CO)[C@@H](O)C3(F)F)c(=O)n2)cc(OC)c1OC [Non-phosphorylated analog of Compound 3, N-(1-((2R,4R,5R)-3,3-difluoro-4-hydroxy-5-(hydroxymethyl)tetrahydrofuran-2-yl)-2-oxo-1,2-dihydropyrimidin-4-yl)-3,4,5-trimethoxybenzamide] | 1.69 ± 0.1 | 10040 | > 500 | 0.566 | 0.0493 ± 0.0088 | – | 5.05 | 1.83 | 1.67 | 1.28 | CC50 (Huh7 cells [4]): 495 ± 97 µM |
| CCCC(CCC)C(=O)Nc1ccn(C2O[C@H](CO)[C@@H](O)C2(F)F)c(=O)n1 (stereo partly shown) [Non-phosphorylated analog of Compound 1] | 1.27 ± 0.09 | 850 | > 500 | 9.06 ± 1.95 | 0.451 ± 0.079 | 1.27 | 3.89 ± 0.68 | 1.02 ± 0.15 | 4.32 ± 0.34 | 15.1 ± 1.77 | drop of HCV viral titer after 12 hours (genotype 1a HCV; single oral dosage 260 mg): 8%; HCV viral titer after 12 hours (genotype 1a HCV; single oral dosage 260 mg in Formulation I, titer before 154,000 IU/ml): 142,000 IU/ml; CC50 (PK9 cells [3]; read-out: TC50 (μM) in PK9 cells at 48 h With NBTI): 6.6 µM; CC50 at 48 h ([2]; Huh7 cells): 383 ± 51 µM; CC50 (Huh7 cells [5]; read-out: TC50 (μM) in Huh7 cells at 48 h With NBTI): 260 µM; CC50 (Huh7 cells [5]; read-out: TC50 (μM) in Huh7 cells at 48 h Without NBTI): 383 µM; tolerability [6]: well tolerated |
